Data taken from patent publication US20160326098A1, “Pharmaceutically Active Compound for Use as Anti-inflammatory Agent” (Pax Forschung GmbH, priority 2013, published 2016).

Experiments:
Assay type in all cases: in vivo
myeloperoxidase (MPO) = experiment: Tissue myeloperoxidase activity, mice with gastric injury without inflammation; details: gastric and duodenal tissue, one day after treatment with 1.11 mmol/kg, vs control group A, FIGS. 5a/5b
Method: […] The homogenate was centrifuged at 4° C. for 20 minutes at 24,000 g, and the supernatant was loaded into centrifugal tubes (Amicon Centricon-100; 100,000-molecular-weight cutoff ultrafilter, Millipore Corporation, Bedford, Mass.). The activity of myeloperoxidase (MPO) was measured on the pellet of the homogenate.
The activity of MPO as a marker of tissue leukocyte infiltration was measured on the pellet of the homogenate. Briefly, the pellet was resuspended in K3PO4 buffer (0.05 M; pH 6.0) containing 0.5% […]. […] The reaction led to the hydrogen peroxide-dependent oxidation of tetramethylbenzidine, which could be detected spectrophotometrically at 450 nm (UV-1601 spetrophotometer; Shimadzu, Kyoto, Japan). Myeloperoxidase activities were measured at 37° C.; the reaction was stopped after 5 minutes by the addition of 0.2 ml of H2SO4 (2 M), and the resulting data were referred to the protein content.
First experiments regarding the effect of the compound of formula (I) and a pharmaceutical composition comprising the compound of formula (I) (clear aqueous solution of compound of formula (I) at pH 4.8), respectively, on gastric injury without inflammation were conducted on mice. […] The effects were determined by way of measurement of body weight, blood gas analysation and biopsy. […]

[1] = system: High mobility group box protein 1 (HMGB-1); experiment: Plasma high mobility group protein B1, rats with gastric injury without inflammation; details: 1.11 mmol/kg, day 3, vs control group H, FIG. 22
Method: High mobility group box protein 1 (HMGB-1) measurements in plasma:
Blood samples were drawn into chilled polypropylene tubes containing EDTA (1 mg/ml) and were centrifuged at 1200 g for 10 min at 4° C. The plasma samples were then collected and stored at −70° C. until assay. Plasma concentration of HMGB-1 was measured by a commercially available HMGB-1 ELISA kit (Shino-Test Corporation, Kanagawa, Japan).
Further experiments regarding the effect of a compound of formula (I) and a pharmaceutical composition comprising a compound of formula (I), respectively, on gastric injury without inflammation were conducted on rats. 15 animals were randomly allocated into three groups. Group H (n=5) served as sham-operated controls. Samples of all animals were drawn on day 1 of the clinical tests. On day 2 the animals of group I (n=5) were force-fed acetylsalicylic acid (ASS) (1.11 mmol/kg body weight). Group K (n=5) was force-fed 1.11 mmol/kg body weight of the compound according to the invention. […] Fluorescence confocal endomicroscopy was performed to examine the microvasculature and morphologic changes of the mucosa of the distal colon, and full-thickness tissue samples and venous blood samples were taken to determine the biochemical changes in the colon and plasma. The effects were determined by way of measurement of body weight, blood gas analysation and biopsy. […]

[2] = Body weight, rats with TNBS-induced colitis; details: two days after enema, one day after 1.11 mmol/kg, FIG. 27
Method: Colonic inflammation was induced by intracolonic administration of TNBS (2,4,6-trinitrobenzenesulfonic acid) (40 mg/kg in 0.25 ml of 25% aqueous ethanol) through an 8-cm-long soft plastic catheter under transient diethylether anesthesia. In the sham-operated groups, only the vehicle for TNBS was administered. The animals were deprived of food, but not water, for 12 h before the enemas.
The above-described clinical studies were repeated with animals having colitis which was induced as described above. […] Two days after the enema the effects of the treatment were determined by measurement of body weight, blood gas analysis and biopsy. […] Surgery was performed to allow registration of the hemodynamic parameters at 1 h intervals for 6 h (cardiac output [CO] data were measured only at the end of the experiments). […] In addition, fluorescence confocal endomicroscopy was performed to examine the microvasculature and morphologic changes of the mucosa of the distal colon, and full-thickness tissue samples and venous blood samples were taken to determine the biochemical changes in the colon and plasma.

[3] = Body weight, mice with gastric injury without inflammation; details: 1.11 mmol/kg force-fed, one day after gavage, FIG. 2
Method: First experiments regarding the effect of the compound of formula (I) and a pharmaceutical composition comprising the compound of formula (I) (clear aqueous solution of compound of formula (I) at pH 4.8), respectively, on gastric injury without inflammation were conducted on mice. 48 animals were randomly allocated into three groups. Group A (n=16) served as sham-operated controls. Samples of all animals were drawn on day 1 of the clinical tests. On day 2 the animals of group B (n=16) were force-fed acetylsalicylic acid (ASS) (1.11 mmol/kg body weight). Group C (n=16) was force-fed 1.11 mmol/kg body weight of the compound according to the invention. Group A only received the respective solvent (25% ethanol in water). One day after the gavage, additional samples were drawn. Fluorescence confocal endomicroscopy was performed to examine the microvasculature and morphologic changes of the mucosa of the distal colon, and full-thickness tissue samples and venous blood samples were taken to determine the biochemical changes in the colon and plasma. The effects were determined by way of measurement of body weight, blood gas analysation and biopsy. ASS was chosen as a comparative example due to its structural similarity and its known activity as anti-inflammatory agent.

| Compound | myeloperoxidase (MPO) activity (myeloperoxidase (MPO)) | concentration of the high mobility group protein B1 in the plasma [1] | loss of body weight [2] | change in body weight [3] |
| --- | --- | --- | --- | --- |
| CC(=O)Oc1ccccc1C(=O)O [ASS, acetylsalicylic acid, reference compound] | increased | increased | severe loss in body weight | severe loss of body weight |
| CC(=O)Oc1ccccc1C(=O)NC(CO)(CO)CO [compound according to the invention] | does not further enhance the inflammatory processes | comparable with the concentration in the plasma of the animals in the control group H | No weight loss | only showed a minor loss in body weight |
